Key:
[1] = target: 5-hydroxytryptamine receptor 2A (Homo sapiens, UniProt P28223); assay: biochemical; assay type: cell-based, CHO-K1
[2] = target: hERG (KCNH2) potassium channel (Homo sapiens, UniProt Q12809); assay: in vitro; details: CHO cells expressing human cloned ERG
[3] = target: T1, Muscarinic acetylcholine receptor M1 (Homo sapiens) (UniProt P11229); assay: Displacement of [3H]pirenzepine from human recombinant M1 receptor expressed in CHO cells at 1 uM; assay type: cell-based
T1 sequence (whole entry): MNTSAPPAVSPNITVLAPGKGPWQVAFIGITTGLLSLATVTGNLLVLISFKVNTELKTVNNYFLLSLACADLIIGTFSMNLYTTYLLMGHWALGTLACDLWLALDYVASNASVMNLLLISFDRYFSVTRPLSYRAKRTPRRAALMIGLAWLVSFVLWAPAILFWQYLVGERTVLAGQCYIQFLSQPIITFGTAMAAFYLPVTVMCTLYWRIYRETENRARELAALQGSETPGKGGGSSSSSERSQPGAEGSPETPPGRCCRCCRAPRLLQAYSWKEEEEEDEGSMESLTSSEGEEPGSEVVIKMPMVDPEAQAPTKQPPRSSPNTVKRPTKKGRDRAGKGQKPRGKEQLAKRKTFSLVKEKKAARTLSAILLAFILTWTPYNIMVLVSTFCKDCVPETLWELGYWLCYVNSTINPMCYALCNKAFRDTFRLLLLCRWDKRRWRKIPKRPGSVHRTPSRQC

[4] = target: 5-hydroxytryptamine receptor 7 (Homo sapiens, UniProt P34969); assay: biochemical; assay type: cell-based, CHO-K1
D(2) dopamine receptor = D(2) dopamine receptor (Homo sapiens, UniProt P14416); assay: biochemical
[5] = target: 5-hydroxytryptamine receptor 6 (Homo sapiens, UniProt P50406); assay: biochemical
Chain of 5-hydroxytryptamine receptor 6 (P50406 whole entry): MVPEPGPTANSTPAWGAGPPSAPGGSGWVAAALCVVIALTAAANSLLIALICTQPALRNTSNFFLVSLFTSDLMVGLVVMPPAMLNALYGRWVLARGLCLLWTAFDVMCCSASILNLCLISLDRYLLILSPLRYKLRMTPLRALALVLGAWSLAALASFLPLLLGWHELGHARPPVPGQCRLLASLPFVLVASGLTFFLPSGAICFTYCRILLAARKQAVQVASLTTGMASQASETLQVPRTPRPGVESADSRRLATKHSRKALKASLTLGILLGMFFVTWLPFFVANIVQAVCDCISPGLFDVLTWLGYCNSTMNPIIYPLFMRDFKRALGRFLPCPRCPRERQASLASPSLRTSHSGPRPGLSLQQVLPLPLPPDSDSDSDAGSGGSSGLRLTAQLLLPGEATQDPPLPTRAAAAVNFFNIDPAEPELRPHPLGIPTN

Chain of D(2) dopamine receptor (P14416 whole entry): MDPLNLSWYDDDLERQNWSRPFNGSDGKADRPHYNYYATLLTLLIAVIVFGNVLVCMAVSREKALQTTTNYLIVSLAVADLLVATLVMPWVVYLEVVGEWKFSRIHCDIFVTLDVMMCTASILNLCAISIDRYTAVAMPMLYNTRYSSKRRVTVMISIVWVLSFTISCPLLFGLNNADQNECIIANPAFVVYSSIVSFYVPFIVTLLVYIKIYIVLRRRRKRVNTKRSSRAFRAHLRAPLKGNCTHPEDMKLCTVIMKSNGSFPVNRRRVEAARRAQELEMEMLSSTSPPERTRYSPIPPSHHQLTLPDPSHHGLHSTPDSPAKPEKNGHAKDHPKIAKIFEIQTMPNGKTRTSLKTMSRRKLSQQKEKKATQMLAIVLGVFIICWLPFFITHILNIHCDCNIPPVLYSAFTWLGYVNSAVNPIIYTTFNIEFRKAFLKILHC
Chain of 5-hydroxytryptamine receptor 7 (P34969 whole entry): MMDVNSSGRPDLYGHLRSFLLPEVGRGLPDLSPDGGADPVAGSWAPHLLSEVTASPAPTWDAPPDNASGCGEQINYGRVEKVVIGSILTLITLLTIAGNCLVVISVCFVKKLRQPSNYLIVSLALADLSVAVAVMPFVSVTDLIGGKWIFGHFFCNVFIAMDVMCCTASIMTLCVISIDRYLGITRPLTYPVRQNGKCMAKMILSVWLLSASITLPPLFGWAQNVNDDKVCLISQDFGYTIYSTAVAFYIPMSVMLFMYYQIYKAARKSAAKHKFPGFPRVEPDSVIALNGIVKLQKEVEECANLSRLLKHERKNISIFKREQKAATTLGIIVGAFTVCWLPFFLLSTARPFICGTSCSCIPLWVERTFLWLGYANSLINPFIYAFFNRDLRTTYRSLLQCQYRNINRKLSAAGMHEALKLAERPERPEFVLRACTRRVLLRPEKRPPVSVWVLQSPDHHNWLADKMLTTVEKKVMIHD
Chain of 5-hydroxytryptamine receptor 2A (P28223 whole entry): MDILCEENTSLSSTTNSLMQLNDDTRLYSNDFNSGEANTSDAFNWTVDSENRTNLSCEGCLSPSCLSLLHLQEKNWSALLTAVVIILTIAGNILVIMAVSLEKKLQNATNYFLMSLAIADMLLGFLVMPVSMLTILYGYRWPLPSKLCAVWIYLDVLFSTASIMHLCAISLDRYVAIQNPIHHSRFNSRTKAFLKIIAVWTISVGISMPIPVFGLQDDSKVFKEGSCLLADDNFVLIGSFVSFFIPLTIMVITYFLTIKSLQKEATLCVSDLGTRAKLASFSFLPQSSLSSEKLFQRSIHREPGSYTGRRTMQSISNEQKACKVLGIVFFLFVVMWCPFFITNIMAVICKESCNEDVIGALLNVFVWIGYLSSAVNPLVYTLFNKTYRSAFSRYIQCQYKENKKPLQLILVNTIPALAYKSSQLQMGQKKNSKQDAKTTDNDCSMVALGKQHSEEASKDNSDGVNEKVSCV
Chain of hERG (KCNH2) potassium channel (Q12809 whole entry): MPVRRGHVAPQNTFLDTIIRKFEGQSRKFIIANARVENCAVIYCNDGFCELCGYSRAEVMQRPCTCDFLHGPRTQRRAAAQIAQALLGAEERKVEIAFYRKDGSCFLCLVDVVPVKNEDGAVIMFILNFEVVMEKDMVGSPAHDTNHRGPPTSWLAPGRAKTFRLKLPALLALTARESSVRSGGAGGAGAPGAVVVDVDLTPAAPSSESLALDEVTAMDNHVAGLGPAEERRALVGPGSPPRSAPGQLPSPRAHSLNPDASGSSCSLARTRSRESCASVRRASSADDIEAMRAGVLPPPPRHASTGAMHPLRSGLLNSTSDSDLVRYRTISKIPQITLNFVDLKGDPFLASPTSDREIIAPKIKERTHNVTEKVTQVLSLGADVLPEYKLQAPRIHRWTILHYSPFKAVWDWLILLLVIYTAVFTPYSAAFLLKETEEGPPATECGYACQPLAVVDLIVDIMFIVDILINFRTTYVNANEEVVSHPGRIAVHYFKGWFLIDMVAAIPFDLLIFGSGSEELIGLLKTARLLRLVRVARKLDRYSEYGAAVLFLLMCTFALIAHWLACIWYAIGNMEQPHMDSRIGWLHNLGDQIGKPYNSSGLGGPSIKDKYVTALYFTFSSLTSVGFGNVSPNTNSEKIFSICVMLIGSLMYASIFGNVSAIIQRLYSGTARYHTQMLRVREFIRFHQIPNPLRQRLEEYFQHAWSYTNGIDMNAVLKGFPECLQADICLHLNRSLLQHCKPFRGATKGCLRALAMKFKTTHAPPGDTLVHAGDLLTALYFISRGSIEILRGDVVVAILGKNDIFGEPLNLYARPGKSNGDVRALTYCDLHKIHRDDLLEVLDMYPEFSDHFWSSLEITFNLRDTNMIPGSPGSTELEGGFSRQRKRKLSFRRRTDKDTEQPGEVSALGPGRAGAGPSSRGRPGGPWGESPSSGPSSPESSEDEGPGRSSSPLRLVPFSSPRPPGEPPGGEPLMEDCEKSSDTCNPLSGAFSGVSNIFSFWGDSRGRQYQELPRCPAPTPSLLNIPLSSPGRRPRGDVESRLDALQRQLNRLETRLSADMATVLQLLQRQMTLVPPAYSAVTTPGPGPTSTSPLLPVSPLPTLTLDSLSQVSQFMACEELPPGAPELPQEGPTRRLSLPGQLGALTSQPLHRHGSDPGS

Structure (SMILES)	Ki [1]	inhibition at 1 µM [2]	inhibition [3]	Ki [4]	Ki (D(2) dopamine receptor)	Ki [5]
Cc1cccc(S(=O)(=O)NCCN2CCC(c3noc4cc(F)ccc34)CC2)c1	3.5 nM	42%	0%	1.1 nM	20 nM	210 nM
O=S(=O)(NCCCN1CCN(c2noc3ccccc23)CC1)c1ccc2cc(Cl)ccc2c1	> 10000 nM	14%	3%	2500 nM	> 10000 nM	2300 nM
O=S(=O)(NCCCN1CCC(c2noc3cc(F)ccc23)CC1)c1cccc2ccccc12	1.7 nM	27%	-9%	0.5 nM	4 nM	83 nM
O=S(=O)(NCCCN1CCN(c2nsc3ccccc23)CC1)c1cnc2ccccn12	12 nM	6%	2%	6.3 nM	26 nM	84 nM
Cc1c(S(=O)(=O)NCCCCN2CCN(c3noc4ccccc34)CC2)sc2ccc(F)cc12	7.4 nM	29%	-4%	2.6 nM	46 nM	17 nM
O=S(=O)(NCCCCN1CCN(c2nsc3ccccc23)CC1)c1cnc2ccccn12	8.1 nM	17%	6%	4.1 nM	46 nM	140 nM
Cc1cccc(S(=O)(=O)NCCCCN2CCN(c3nsc4ccccc34)CC2)c1	0.4 nM	17%	-4%	1.6 nM	8.7 nM	100 nM
O=S(=O)(NCCCN1CCN(c2noc3ccccc23)CC1)c1ccc(Cl)c(Cl)c1	290 nM	27%	0%	34 nM	> 10000 nM	1100 nM
O=S(=O)(NCCCN1CCC(c2noc3cc(F)ccc23)CC1)c1ccc2ccccc2c1	2.8 nM	63%	-7%	0.8 nM	1 nM	32 nM
O=S(=O)(NCCCN1CCN(c2noc3ccccc23)CC1)c1ccc2ccccc2c1	110 nM	29%	-5%	120 nM	7200 nM	1600 nM
O=S(=O)(NCCCN1CCN(c2nsc3ccccc23)CC1)c1ccc2cc(Cl)ccc2c1	13 nM	7%	-7%	38 nM	6 nM	100 nM
O=S(=O)(NCCN1CCC(c2noc3cc(F)ccc23)CC1)c1ccc2ccccc2c1	1.8 nM	21%	-2%	0.4 nM	5.2 nM	133 nM
O=S(=O)(NCCCCN1CCN(c2noc3ccccc23)CC1)c1cc2ccc(Cl)cc2s1	11 nM	15%	-1%	5.1 nM	54 nM	46 nM
Cc1c(S(=O)(=O)NCCCN2CCN(c3nsc4ccccc34)CC2)sc2ccc(F)cc12	14 nM	3%	-8%	25 nM	8.3 nM	120 nM
O=S(=O)(NCCCCN1CCN(c2noc3ccccc23)CC1)c1cc2ccccc2s1	190 nM	14%	2%	180 nM	1300 nM	1100 nM
Cc1c(S(=O)(=O)NCCCN2CCC(c3noc4cc(F)ccc34)CC2)sc2ccc(F)cc12	2.3 nM	43%	2%	10 nM	8 nM	25 nM
O=S(=O)(NCCCN1CCN(c2noc3ccccc23)CC1)c1cccc2scnc12	3300 nM	17%	-2%	41 nM	> 10000 nM	> 10000 nM
O=S(=O)(NCCCN1CCN(c2nsc3ccccc23)CC1)c1ccc2ccccc2c1	10 nM	13%	0%	1.5 nM	2.2 nM	40 nM

Structure (SMILES)	Ki [1]	inhibition at 1 µM [2]	inhibition [3]	Ki [4]	Ki (D(2) dopamine receptor)	Ki [5]
O=S(=O)(NCCCCN1CCC(c2noc3cc(F)ccc23)CC1)c1csc2ccccc12	5.7 nM	46%	5%	4.3 nM	22 nM	13 nM
O=S(=O)(NCCCN1CCN(c2noc3ccccc23)CC1)c1cc2ccc(Cl)cc2s1	63 nM	7%	6%	900 nM	30 nM	560 nM
O=S(=O)(NCCCN1CCC(c2noc3cc(F)ccc23)CC1)c1cnc2ccccn12	6.5 nM	28%	-4%	3.2 nM	15 nM	100 nM
O=S(=O)(NCCCN1CCN(c2noc3ccccc23)CC1)c1ccc(F)c(Cl)c1	98 nM	33%	2%	9.9 nM	> 10000 nM	330 nM
O=S(=O)(NCCCN1CCC(c2noc3cc(F)ccc23)CC1)c1cccc2scnc12	9.1 nM	51%	1%	1.3 nM	> 1000 nM	23 nM
O=S(=O)(NCCCCN1CCC(c2noc3cc(F)ccc23)CC1)c1ccc(F)c(Cl)c1	9 nM	90%	18%	4.4 nM	26 nM	48 nM
O=S(=O)(NCCCN1CCC(c2noc3cc(F)ccc23)CC1)c1ccc2cc(Cl)ccc2c1	3.1 nM	28%	-7%	18 nM	23 nM	26 nM
Cc1c(S(=O)(=O)NCCCCN2CCN(c3nsc4ccccc34)CC2)sc2ccc(F)cc12	6.5 nM	5%	10%	4.6 nM	44 nM	54 nM
O=S(=O)(NCCCCN1CCN(c2nsc3ccccc23)CC1)c1cccc2scnc12	7.5 nM	34%	0%	3.4 nM	16 nM	120 nM
O=S(=O)(NCCCN1CCN(c2noc3ccccc23)CC1)c1cc2ccccc2s1	410 nM	21%	14%	150 nM	15 nM	35 nM
O=S(=O)(NCCCCN1CCN(c2nsc3ccccc23)CC1)c1cc2ccc(Cl)cc2s1	6.5 nM	5%	2%	9 nM	45 nM	45 nM
O=S(=O)(NCCCCN1CCN(c2nsc3ccccc23)CC1)c1cc2ccccc2s1	6 nM	11%	0%	9.9 nM	15 nM	33 nM
O=S(=O)(NCCCN1CCC(c2noc3cc(F)ccc23)CC1)c1csc2ccccc12	1.6 nM	25%	-2%	0.9 nM	36 nM	13 nM
O=S(=O)(NCCCCN1CCN(c2noc3ccccc23)CC1)c1cnc2ccccn12	13 nM	13%	0%	5.9 nM	100 nM	95 nM
O=S(=O)(NCCCN1CCN(c2nsc3ccccc23)CC1)c1cccc2scnc12	8.4 nM	16%	0%	2 nM	27 nM	27 nM
Cc1cccc(S(=O)(=O)NCCCCN2CCN(c3noc4ccccc34)CC2)c1	26 nM	27%	-3%	1.1 nM	44 nM	87 nM
O=S(=O)(NCCCN1CCC(c2noc3cc(F)ccc23)CC1)c1cc2ccc(Cl)cc2s1	2.6 nM	20%	-8%	34 nM	27 nM	44 nM

From ChEMBL document CHEMBL3286108, “Novel arylsulfonamide derivatives with 5-HT₆/5-HT₇ receptor antagonism targeting behavioral and psychological symptoms of dementia” (J Med Chem, 2014)
